Key:
MCF7 cells = experiment: Anti-proliferation (viability) of MCF7 cells (Table 7, FIG. 2B); format: cell-based; conditions: Homo sapiens, MCF7, MCF7 cells, 3-6 days, 10-point serial dilution; read-out: GI IC50 in MCF-7
CDK4 = CDK4 (Homo sapiens, UniProt P11802+Q16531); experiment: CDK4 percentage degradation in Calu-1 cells (Table 6); format: cell-based; parameters: Cells that express cyclin D1-3 and CDK4/6 proteins were treated with heterobifunctional compounds; endogenous in cells; host or cells: Calu-1; conditions: 16 hours; for inhibition at 0.04 µM: 40 nM; for inhibition at 0.2 µM: 200 nM
Method in brief: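 Calu-1 cells exposed to heterobifunctional compounds at 40 nM or 200 nM for 16 h. Cyclin D1 and CDK4 levels measured by Western blot of RIPA lysates (BCA-normalised loading), bands quantified by densitometry and expressed as percentage degradation.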

Sequence of CDK4 (P11802 2-303 limits assumed): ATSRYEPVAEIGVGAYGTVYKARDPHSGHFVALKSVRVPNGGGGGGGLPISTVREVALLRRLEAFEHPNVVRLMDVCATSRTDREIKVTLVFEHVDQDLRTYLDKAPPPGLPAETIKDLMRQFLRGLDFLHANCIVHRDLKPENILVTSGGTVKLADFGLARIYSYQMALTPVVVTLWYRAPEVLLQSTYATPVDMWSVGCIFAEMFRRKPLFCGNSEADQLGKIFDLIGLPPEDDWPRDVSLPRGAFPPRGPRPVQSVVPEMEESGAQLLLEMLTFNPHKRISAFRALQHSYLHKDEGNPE
Sequence of CDK4 (P24385 whole entry partner): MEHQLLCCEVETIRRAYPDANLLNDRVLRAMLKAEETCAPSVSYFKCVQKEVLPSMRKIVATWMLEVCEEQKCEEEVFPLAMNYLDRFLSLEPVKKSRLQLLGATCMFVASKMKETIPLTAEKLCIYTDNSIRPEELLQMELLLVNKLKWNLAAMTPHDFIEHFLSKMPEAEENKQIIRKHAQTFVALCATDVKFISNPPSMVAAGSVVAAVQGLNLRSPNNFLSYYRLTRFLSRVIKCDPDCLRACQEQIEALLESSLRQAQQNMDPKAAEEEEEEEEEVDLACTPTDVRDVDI
Sequence of CDK4 (Q16531 2-1140 limits assumed): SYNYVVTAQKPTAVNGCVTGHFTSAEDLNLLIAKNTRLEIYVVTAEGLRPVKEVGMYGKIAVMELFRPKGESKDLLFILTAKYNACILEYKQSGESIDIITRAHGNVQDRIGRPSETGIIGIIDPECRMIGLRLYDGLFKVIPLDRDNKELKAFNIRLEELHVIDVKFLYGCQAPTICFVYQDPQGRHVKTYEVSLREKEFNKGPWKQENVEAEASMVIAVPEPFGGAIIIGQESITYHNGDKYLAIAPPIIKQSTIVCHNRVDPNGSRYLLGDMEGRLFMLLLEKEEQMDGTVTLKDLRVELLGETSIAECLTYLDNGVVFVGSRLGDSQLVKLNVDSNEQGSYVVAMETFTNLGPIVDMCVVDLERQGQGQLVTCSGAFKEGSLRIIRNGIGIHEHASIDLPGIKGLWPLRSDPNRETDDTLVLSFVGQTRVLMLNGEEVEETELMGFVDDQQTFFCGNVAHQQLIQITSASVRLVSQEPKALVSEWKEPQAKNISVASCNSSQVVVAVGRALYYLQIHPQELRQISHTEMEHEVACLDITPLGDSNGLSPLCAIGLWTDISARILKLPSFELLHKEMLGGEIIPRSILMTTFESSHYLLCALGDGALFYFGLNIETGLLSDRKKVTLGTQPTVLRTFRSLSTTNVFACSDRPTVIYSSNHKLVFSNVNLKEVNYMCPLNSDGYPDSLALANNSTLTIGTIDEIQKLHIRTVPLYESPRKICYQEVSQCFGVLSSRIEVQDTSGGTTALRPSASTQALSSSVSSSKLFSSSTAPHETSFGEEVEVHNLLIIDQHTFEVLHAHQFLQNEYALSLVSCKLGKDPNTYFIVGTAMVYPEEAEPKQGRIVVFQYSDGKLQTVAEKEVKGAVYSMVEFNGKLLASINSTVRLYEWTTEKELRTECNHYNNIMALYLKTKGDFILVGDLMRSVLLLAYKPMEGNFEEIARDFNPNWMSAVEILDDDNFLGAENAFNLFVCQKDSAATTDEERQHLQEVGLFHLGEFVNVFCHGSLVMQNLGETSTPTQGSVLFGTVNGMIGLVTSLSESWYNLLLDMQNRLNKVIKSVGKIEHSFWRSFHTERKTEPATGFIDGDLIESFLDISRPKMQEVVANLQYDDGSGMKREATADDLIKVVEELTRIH

SMILES	IC50 (MCF7 cells)	inhibition at 0.04 µM (CDK4)	inhibition at 0.2 µM (CDK4)
CCNc1ccc(C(=O)Nc2cn(C)c(C3CC3)n2)c(NC2CC3(CC(NC(=O)CN4CCN(c5ccc(Nc6ncc7c(C)c(C(C)=O)c(=O)n(C8CCCC8)c7n6)nc5)CC4)C3)C2)n1 (stereo not shown) [CPD-293, 2-((6-(2-(4-(6-((6-acetyl-8-cyclopentyl-5-methyl-7-oxo-7,8-dihydropyrido[2,3-d]pyrimidin-2-yl)amino)pyridin-3-yl)piperazin-1-yl)acetamido)spiro[3.3]heptan-2-yl)amino)-N-(2-cyclopropyl-1-methyl-1H-imidazol-4-yl)-6-(ethylamino)nicotinamide]	> 100 nM	–	–
CC(=O)c1c(C)c2cnc(Nc3ccc(N4CCN(CC(=O)NCC5CC(Nc6cc(F)ccc6C(=O)Nc6cc(C)n(C)n6)C5)CC4)cn3)nc2n(C2CCCC2)c1=O (stereo not shown) [CPD-264, 2-((3-((2-(4-(6-((6-acetyl-8-cyclopentyl-5-methyl-7-oxo-7,8-dihydropyrido[2,3-d]pyrimidin-2-yl)amino)pyridin-3-yl)piperazin-1-yl)acetamido)methyl)cyclobutyl)amino)-N-(1,5-dimethyl-1H-pyrazol-3-yl)-4-fluorobenzamide]	> 100 nM	–	–
CC(=O)c1c(C)c2cnc(Nc3ccc(N4CCN(CC(=O)NC5CC6(C5)CC(Nc5nc(N(C)C)ccc5C(=O)Nc5cn(C)c(C7CC7)n5)C6)CC4)cn3)nc2n(C2CCCC2)c1=O (stereo not shown) [CPD-291, 2-((6-(2-(4-(6-((6-acetyl-8-cyclopentyl-5-methyl-7-oxo-7,8-dihydropyrido[2,3-d]pyrimidin-2-yl)amino)pyridin-3-yl)piperazin-1-yl)acetamido)spiro[3.3]heptan-2-yl)amino)-N-(2-cyclopropyl-1-methyl-1H-imidazol-4-yl)-6-(dimethylamino)nicotinamide]	> 100 nM	–	–
CNc1ccc(C(=O)Nc2cc(C)on2)c(NC2CC3(CC(NC(=O)CN4CCN(c5ccc(Nc6ncc7c(C)c(C(C)=O)c(=O)n(C8CCCC8)c7n6)nc5)CC4)C3)C2)n1 (stereo not shown) [CPD-160, 2-((6-(2-(4-(6-((6-acetyl-8-cyclopentyl-5-methyl-7-oxo-7,8-dihydropyrido[2,3-d]pyrimidin-2-yl)amino)pyridin-3-yl)piperazin-1-yl)acetamido)spiro[3.3]heptan-2-yl)amino)-6-(methylamino)-N-(5-methylisoxazol-3-yl)nicotinamide]	–	50 to 80%	> 80%
CNc1ccc(C(=O)Nc2nc(C3CC3)ccc2F)c(NC2CC3(CC(NC(=O)CN4CCN(c5ccc(Nc6ncc7c(C)c(C(C)=O)c(=O)n(C8CCCC8)c7n6)nc5)CC4)C3)C2)n1 (stereo not shown) [CPD-114, 2-((6-(2-(4-(6-((6-Acetyl-8-cyclopentyl-5-methyl-7-oxo-7,8-dihydropyrido[2,3-d]pyrimidin-2-yl)amino)pyridin-3-yl)piperazin-1-yl)acetamido)spiro[3.3]heptan-2-yl)amino)-N-(6-cyclopropyl-3-fluoropyridin-2-yl)-6-(methylamino)nicotinamide]	–	< 30%	< 30%
CNc1ccc(C(=O)Nc2ccc(N(C)C)nn2)c(NC2CC3(CC(CCCN4CCN(c5ccc(Nc6ncc7c(C)c(C(C)=O)c(=O)n(C8CCCC8)c7n6)nc5)CC4)C3)C2)n1 (stereo not shown) [CPD-83, 2-((6-(3-(4-(6-((6-Acetyl-8-cyclopentyl-5-methyl-7-oxo-7,8-dihydropyrido[2,3-d]pyrimidin-2-yl)amino)pyridin-3-yl)piperazin-1-yl)propyl)spiro[3.3]heptan-2-yl)amino)-N-(6-(dimethylamino)pyridazin-3-yl)-6-(methylamino)nicotinamide]	–	< 30%	30 to 50%
CNc1ccc(C(=O)Nc2ccc(N)nn2)c(NCCCCCNC(=O)CN2CCN(c3ccc(Nc4ncc5c(C)c(C(C)=O)c(=O)n(C6CCCC6)c5n4)nc3)CC2)n1 [CPD-104, 2-((5-(2-(4-(6-((6-Acetyl-8-cyclopentyl-5-methyl-7-oxo-7,8-dihydropyrido[2,3-d]pyrimidin-2-yl)amino)pyridin-3-yl)piperazin-1-yl)acetamido)pentyl)amino)-N-(6-aminopyridazin-3-yl)-6-(methylamino)nicotinamide]	–	< 30%	< 30%
CNc1ccc(C(=O)Nc2cccc(N)n2)c(NC2CC3(CC(NC(=O)CN4CCN(c5ccc(Nc6ncc7c(C)c(C(C)=O)c(=O)n(C8CCCC8)c7n6)nc5)CC4)C3)C2)n1 (stereo not shown) [CPD-180, 2-((6-(2-(4-(6-((6-acetyl-8-cyclopentyl-5-methyl-7-oxo-7,8-dihydropyrido[2,3-d]pyrimidin-2-yl)amino)pyridin-3-yl)piperazin-1-yl)acetamido)spiro[3.3]heptan-2-yl)amino)-N-(6-aminopyridin-2-yl)-6-(methylamino)nicotinamide]	–	< 30%	30 to 50%
[2H]C([2H])([2H])Nc1ccc(C(=O)Nc2cccc(C)n2)c(NC2CC3(C2)CC(OC(C)(C)C(=O)N2CCN(c4ccc(Nc5ncc6c(C)c(C(C)=O)c(=O)n(C7CCCC7)c6n5)nc4)CC2)C3)n1 (stereo not shown) [CPD-226, 2-((6-((1-(4-(6-((6-acetyl-8-cyclopentyl-5-methyl-7-oxo-7,8-dihydropyrido[2,3-d]pyrimidin-2-yl)amino)pyridin-3-yl)piperazin-1-yl)-2-methyl-1-oxopropan-2-yl)oxy)spiro[3.3]heptan-2-yl)amino)-6-((methyl-d3)amino)-N-(6-methylpyridin-2-yl)nicotinamide]	–	< 30%	30 to 50%

Further lines, results first:

IC50 (MCF7 cells)	inhibition at 0.04 µM (CDK4)	inhibition at 0.2 µM (CDK4)	SMILES
> 100 nM	–	–	CNc1ccc(C(=O)Nc2ccc(N(C)C)nn2)c(NC2CC(n3cc(CN4CCN(c5ccc(Nc6ncc7c(C)c(C(C)=O)c(=O)n(C8CCCC8)c7n6)nc5)CC4)nn3)C2)n1 (stereo not shown) [CPD-335, 2-((3-(4-((4-(6-((6-acetyl-8-cyclopentyl-5-methyl-7-oxo-7,8-dihydropyrido[2,3-d]pyrimidin-2-yl)amino)pyridin-3-yl)piperazin-1-yl)methyl)-1H-1,2,3-triazol-1-yl)cyclobutyl)amino)-N-(6-(dimethylamino)pyridazin-3-yl)-6-(methylamino)nicotinamide]
< 50 nM	–	–	[2H]C([2H])([2H])Nc1ccc(C(=O)Nc2ccc(N(C)C)nn2)c(NC2CC(NC(=O)CN3CCC4(CCN(c5ccc(Nc6ncc7c(C)c(C(C)=O)c(=O)n(C8CCCC8)c7n6)nc5)C4)C3)C2)n1 (stereo not shown) [CPD-450, 2-((3-(2-(7-(6-((6-acetyl-8-cyclopentyl-5-methyl-7-oxo-7,8-dihydropyrido[2,3-d]pyrimidin-2-yl)amino)pyridin-3-yl)-2,7-diazaspiro[4.4]nonan-2-yl)acetamido)cyclobutyl)amino)-N-(6-(dimethylamino)pyridazin-3-yl)-6-((methyl-d3)amino)nicotinamide]
50 to 100 nM	–	–	CC(=O)c1c(C)c2cnc(Nc3ccc(N4CCN(C(C)CC(=O)N5CCC(Nc6nc(NC(C)C)ccc6C(=O)Nc6cn(C)c(C7CC7)n6)CC5)CC4)cn3)nc2n(C2CCCC2)c1=O (stereo not shown) [CPD-431, 2-((1-(3-(4-(6-((6-acetyl-8-cyclopentyl-5-methyl-7-oxo-7,8-dihydropyrido[2,3-d]pyrimidin-2-yl)amino)pyridin-3-yl)piperazin-1-yl)butanoyl)piperidin-4-yl)amino)-N-(2-cyclopropyl-1-methyl-1H-imidazol-4-yl)-6-(isopropylamino)nicotinamide]
< 50 nM	–	–	CC(=O)c1c(C)c2cnc(Nc3ccc(N4CCN(C(C)CC(=O)N5CCC(Nc6nc(NC(C)C)ccc6C(=O)Nc6ccc(N(C)C)nn6)C5)CC4)cn3)nc2n(C2CCCC2)c1=O (stereo not shown) [CPD-370, 2-((1-(3-(4-(6-((6-acetyl-8-cyclopentyl-5-methyl-7-oxo-7,8-dihydropyrido[2,3-d]pyrimidin-2-yl)amino)pyridin-3-yl)piperazin-1-yl)butanoyl)pyrrolidin-3-yl)amino)-N-(6-(dimethylamino)pyridazin-3-yl)-6-(isopropylamino)nicotinamide]
< 50 nM	–	–	CC(=O)c1c(C)c2cnc(Nc3ccc(N4CCC5(CC4)CC5C(=O)N4CCC(Nc5nc(NC(C)C)ccc5C(=O)Nc5cc(C)on5)CC4)cn3)nc2n(C2CCCC2)c1=O (stereo not shown) [CPD-419, 2-((1-(6-(6-((6-acetyl-8-cyclopentyl-5-methyl-7-oxo-7,8-dihydropyrido[2,3-d]pyrimidin-2-yl)amino)pyridin-3-yl)-6-azaspiro[2.5]octane-1-carbonyl)piperidin-4-yl)amino)-6-(isopropylamino)-N-(5-methylisoxazol-3-yl)nicotinamide]
> 100 nM	–	–	CNc1ccc(C(=O)Nc2ccc(N(C)C)nn2)c(NC2CC3(C2)CN(C(=O)C2CC(N4CCN(c5ccc(Nc6ncc7c(C)c(C(C)=O)c(=O)n(C8CCCC8)c7n6)nc5)CC4)C2)C3)n1 (stereo not shown) [CPD-348, 2-((2-(3-(4-(6-((6-acetyl-8-cyclopentyl-5-methyl-7-oxo-7,8-dihydropyrido[2,3-d]pyrimidin-2-yl)amino)pyridin-3-yl)piperazin-1-yl)cyclobutane-1-carbonyl)-2-azaspiro[3.3]heptan-6-yl)amino)-N-(6-(dimethylamino)pyridazin-3-yl)-6-(methylamino)nicotinamide]
< 50 nM	–	–	CC(=O)c1c(C)c2cnc(Nc3ccc(N4CCC5(CC4)CC5C(=O)N4CCC(Nc5nc(NC(C)C)ccc5C(=O)Nc5cc(C)n(C)n5)CC4)cn3)nc2n(C2CCCC2)c1=O (stereo not shown) [CPD-408, 2-((1-(6-(6-((6-acetyl-8-cyclopentyl-5-methyl-7-oxo-7,8-dihydropyrido[2,3-d]pyrimidin-2-yl)amino)pyridin-3-yl)-6-azaspiro[2.5]octane-1-carbonyl)piperidin-4-yl)amino)-N-(1,5-dimethyl-1H-pyrazol-3-yl)-6-(isopropylamino)nicotinamide]

— patent US20260297081A1, “COMPOUNDS AND METHODS OF TREATING CANCERS” (Cullgen Inc., priority 2023, published 2026)
